Measurements reported in the supplement of paper PMC10307832.

Compound: NC(=O)[C@@H](CCC(F)(F)F)N(Cc1ccc(-c2ncon2)cc1F)S(=O)(=O)c1ccc(Cl)cc1 [Avagacestat]
Assay: relative viability (nuclei count vs DMSO), 5 days (fraction); higher = more cells survive
In short: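 Viability is treated-well nuclei as a fraction of vehicle-well nuclei, reported as the median across plates. Before counting, lung cancer cell lines were kept overnight at 37 °C in 1536-well plates, pinned with five √10-spaced library-drug doses on vehicle-anchored plates, and left 5 days without medium change, then fixed, permeabilised and Hoechst-stained in one step, imaged at 4× and counted by MetaXpress. A plate passed only if control CV was below 25% and at least one doubling occurred.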

| Cell Line | relative viability (0.08 µM) | relative viability (0.253 µM) | relative viability (0.8 µM) | relative viability (2.53 µM) | relative viability (8 µM) |
| --- | --- | --- | --- | --- | --- |
| COR-L 105 | 0.955 | 1.07 | 0.923 | 0.876 | 0.633 |
| LK-2 | 1.28 | 1.22 | 0.784 | 0.604 | 0.874 |
| PC-14 | 1.32 | 1.18 | 1.35 | 1.02 | 0.922 |
| SW 1573 | 1.14 | 1.14 | 1.06 | 0.972 | 0.895 |
| NCI-H2085 | 1.05 | 1.02 | 1.04 | 1.1 | 0.985 |
| NCI-H441 | 1.32 | 1.61 | 1.09 | 1.24 | 0.794 |
| NCI-H1648 | 0.583 | 0.705 | 0.513 | 0.55 | 0.457 |
| NCI-H2126 | 0.994 | 1.04 | 1.06 | 0.921 | 0.936 |
| LXF-289 | 0.995 | 1.05 | 1.05 | 0.994 | 0.975 |
| HCC-44 | 0.999 | 0.999 | 0.997 | 0.968 | 0.935 |
| EKVX | 1.17 | 1.07 | 1.19 | 0.886 | 0.871 |
| NCI-H522 | 0.922 | 1.04 | 0.969 | 1.12 | 0.938 |
| NCI-H1792 | 1.15 | 0.866 | 1.36 | 0.859 | 0.761 |
| NCI-H661 | 1.02 | 1.2 | 1.04 | 0.85 | 1.02 |
| LCLC-103H | 0.994 | 0.928 | 0.921 | 0.929 | 0.941 |
| NCI-H1793 | 1.04 | 1.11 | 1.06 | 0.858 | 0.846 |
| HOP-62 | 1.15 | 1.17 | 1.03 | 0.991 | 0.895 |
| HCC-827 | 1.1 | 1.09 | 1.11 | 1.09 | 1.11 |
| NCI-H2087 | 1.29 | 1.06 | 1.12 | 1.08 | 1.06 |

| Cell Line | relative viability (0.08 µM) | relative viability (0.253 µM) | relative viability (0.8 µM) | relative viability (2.53 µM) | relative viability (8 µM) |
| --- | --- | --- | --- | --- | --- |
| RERF-LC-KJ | 1.07 | 1.1 | 1.04 | 0.945 | 0.856 |
| NCI-H2342 | 0.955 | 0.906 | 0.935 | 0.888 | 0.949 |
| A-427 | 1.12 | 1.12 | 1.17 | 1.07 | 1.08 |
| H3255 | 1.04 | 1.06 | 1.08 | 1.01 | 0.988 |
| HCC-78 | 1.07 | 1.01 | 1.18 | 0.801 | 0.915 |
| NCI-H1755 | 1.03 | 1.1 | 1.17 | 0.941 | 0.964 |
| NCI-H23 | 1.01 | 1.08 | 1.17 | 1.03 | 0.944 |
| ABC-1 | 1.1 | 1.25 | 1.26 | 1.14 | 0.877 |
| COR-L23 | 1.16 | 1.24 | 0.989 | 0.921 | 0.901 |
| NCI-H838 | 1.03 | 1.11 | 1.05 | 0.894 | 0.935 |
| NCI-H2009 | 1.04 | 1.09 | 1.04 | 1.04 | 0.912 |
| NCI-H1563 | 0.984 | 0.986 | 0.968 | 0.798 | 0.813 |
| NCI-H460 | 1.09 | 1.31 | 1.03 | 0.942 | 0.951 |
| 201T | 0.995 | 1 | 1.1 | 0.927 | 0.965 |
| NCI-H358 | 1.02 | 1 | 1.03 | 0.835 | 0.835 |
| ChaGo-K-1 | 1.13 | 0.948 | 0.969 | 0.99 | 0.889 |
| NCI-H1651 | 1.08 | 1.09 | 1.13 | 0.98 | 0.922 |
| LU99A | 0.977 | 0.997 | 1.12 | 0.907 | 0.986 |
| LC-2-ad | 1.02 | 0.985 | 1.11 | 1.03 | 0.96 |
